The text below walks through data of PMC3700072, “Synthesis, Anti-Inflammatory, and Ulcerogenicity Studies of Novel Substituted and Fused Pyrazolo[3,4-d]pyrimidin-4-ones” (Scientia Pharmaceutica, 2013).

As a reminder, the melting point is the temperature of the solid-liquid transition.

Several values for one entry are separate records, joined by “and”; a condition that tells them apart may be missing. Equal values may be shown once.

The test system of one data set is gastric mucosa of rats. Briefly: gastric ulcerogenic effect (Meshali's method, ulcer index by Robert's method). It counts as in vivo, rat. Set-up: key to Ulcer index: ulcer index = %incidence/10 + avg no. of ulcers + avg severity (0–4). The following applies: for % ulceration in the population of test animals: oral 10 mg/kg; for Average No. of ulcer / % Incidence/10 / % Ulcerogenicity relative to indomethacin / Average severity / Ulcer index: oral 10 mg/kg on three days; for % Incidence/10: 5 animals per group; for % Ulcerogenicity relative to indomethacin: indomethacin = 100, 10 mg/kg; for Average severity: score 0 to 4; for Ulcer index: sum of the 3 figures. The protocol: The ulcer index was calculated according to Robert’s method.
Adult male albino rats weighing between 100 and 120 g were used. Animals were divided into groups of five animals each. Rats were fasted 20 h before drug administration. Water was given ad libitum. The control group received the vehicle (1% gum acacia) orally. Other groups received indomethacin or test compounds orally in a dose of 10 mg/kg body weight suspended in 1% gum acacia. Rats were fasted for 2 h, allowed to feed for 2 h, then fasted for another 20 h. Rats were given another two doses on the second and third days. On the fourth day, rats were sacrificed by diethyl ether; the stomach of each rat was removed, opened along the greater curvature, and rinsed with cold 0.9% saline. The stomach was stretched, by pins, on a corkboard and inspected with a 3x magnifying lens for any evidence of mucosal damage. The ulcer index was calculated according to Robert’s method. The number of mucosal damage (red spots) was counted and their severity (ulcerogenic severity) was graded from 0 to 4 according to the following score assignment:
The following figures were calculated: • –– % Incidence/10 = [number of rats showing ulcer of any grade divided by total number of rats in the group × 100]/10. • –– Average number of ulcers: number of ulcers in the group/total number of rats in the group. • –– Average severity: Σ [each ulcer multiplied by its score of severity]/number of ulcers in the group. • Ulcer index = the sum of the 3 figures. • Results are tabulated in Table 2.

Data set [1] concerns carrageenan-induced rat paw edema. Briefly: carrageenan-induced rat paw edema test. The data set is classed as in vivo. Also noted: Mean increase in edema weight ± SEM: unit not given here. The following applies: rats, 10 mg/kg intraperitoneally, 4 h after carrageenan; for inhibition in vivo at 10 mg/kg / change in vivo at 10 mg/kg: Rattus norvegicus, ip; for inhibition in vivo at 10 mg/kg: 4 h, read-out: %Inhibition of Paw edema from control group (edema reduction); for change in vivo at 10 mg/kg / Mean increase in edema weight ± SEM: N = 6; for change in vivo at 10 mg/kg: read-out: Mean % increase in edema weight ± SEM; for % Activity relative to indomethacine: indomethacin = 100. The protocol:
The in vivo anti-inflammatory effects of the newly synthesized pyrazolopyrimidine derivatives were assessed by utilizing the functional model of carrageenan-induced rat paw edema using indomethacin as the reference drug. Mean changes and the percent increase in paw edema weight of animals pretreated with the tested compounds after 4 h from the induction of inflammation were measured, together with the percent inhibition of induced rat paw edema by the tested compounds. The anti-inflammatory activity (relative potency) of the tested compounds relative to that of indomethacin was also calculated (Table 1) (Fig. 2).
The in vivo carrageenan-induced rat paw edema model of inflammation was used to evaluate the anti-inflammatory properties of the newly synthesized compounds according to the previously reported Winter et al. method.
Adult male albino rats weighing 100–120 g (obtained from the animal house of the department of Physiology, Faculty of Medicine, Alexandria University) were used throughout the work. Animals were randomly divided into groups of six rats each. They were kept in an animal house under standard conditions of light and temperature with free access to food and water ad libitum and allowed to be accustomed to their environment for two days before testing.
Indomethacin, used as a reference standard (Khahira for Pharmaceutical and Chemical Industry, Cairo, Egypt), and the test compounds were dissolved in DMSO and were injected intraperitoneally at a dose level of 10 mg/kg body weight. Control animals, on the other hand, were intraperitoneally injected with appropriate volume of DMSO only. After one hour of the above treatment, an inflammatory edema in the right hind paw of all animals was induced by subcutaneous injection of 0.05 ml of freshly prepared solution of 1% carrageenan (λ-Carrageenan Sigma–Aldrich Corp. St. Louis, MO, USA) in sterile normal saline (0.9%), into the subplantar tissue of the paw. An equal volume of saline was injected to the left hind paw and served as internal control for the degree of inflammation in the right hind paw.
Four hours after carrageenan injection, animals were decapitated and both the right and left hind paws were excised at a standard point and weighed. The difference in weight from edema between right and left paws was taken as a measure of the degree of inflammation for each animal. The mean increase in weight of the carrageenan-injected paw over the other paw in each group was measured and the percent increase of edema was calculated. The anti-inflammatory efficacy of the tested compounds was assessed by comparing the change in paw weight in the treated animals with that in control animals (treated with DMSO only) and expressed as a percent inhibition of the edema (percent protection against inflammation), calculated according to the following equation: % Inhibition of edema=(1-Wt/Wc)×100 where Wt is the mean increase in paw weight in rats treated with the test compounds and Wc is the mean increase in paw weight in the control group. The anti-inflammatory activity of the test compounds relative to that of indomethacin was also determined (Table 2).
In the anti-inflammatory study, data obtained were expressed as the mean ± standard error (SEM). Statistical significance was determined by comparing the values of the test compounds and the standard with those obtained from the control group of animals using One-way ANOVA with Dunnett’s post-test using the GraphPad Prism version 3.00 for Windows (GraphPad Software, San Diego California USA, www.graphpad.com). The difference in results was considered significant if P < 0.001.

`Cc1nc2c(cnn2-c2ccccc2)c(=O)n1N=C1SCC(=O)N1c1ccc(Cl)cc1` [Compound 10b, 5-{[3-(4-Chlorophenyl)-4-oxo-1,3-thiazolidin-2-ylidene]amino}-6-methyl-1-phenyl-1,5-dihydro-4H-pyrazolo[3,4-d]pyrimidin-4-one] yielded a melting point of 264 to 267 °C. Further, in the data set on gastric mucosa of rats, the “% ulceration in the population of test animals” value (“% ulceration in the population” for short) is listed as 40–60%, the “Average No. of ulcer” value stood at 0.8, the “% Incidence/10” value amounted to 6 and the “% Ulcerogenicity relative to indomethacin” value came out at 46.63%. Besides, in the data set with gastric mucosa of rats, the Average severity turned out to be 1.25 and the Ulcer index amounted to 8.05. Further, in data set [1], the inhibition in vivo at 10 mg/kg was found to be 58.6%, the change in vivo at 10 mg/kg was found to be 8.31 ± 0.43%, the “Mean increase in edema weight ± SEM” value is listed as 0.65 ± 0.022 and the “% Activity relative to indomethacine” value is 85.99%.

In turn, `Cc1nc2c(cnn2-c2ccccc2)c(=O)n1N=c1scc(-c2ccccc2)n1-c1ccccc1` [Compound 11a, 5-[(3,4-Diphenyl-1,3-thiazol-2(3H)-ylidene)amino]-6-methyl-1-phenyl-1,5-dihydro-4H-pyrazolo[3,4-d]pyrimidin-4-one] displayed a melting point of 258 to 260 °C. In the data set on gastric mucosa of rats, the “% ulceration in the population” value is recorded as 40–60%, the “Average No. of ulcer” value is listed as 1.6, the “% Incidence/10” value was determined as 6 and the “% Ulcerogenicity relative to indomethacin” value stood at 52.02%. Besides, in the data set on gastric mucosa of rats, the Average severity is on record as 1.38 and the Ulcer index came to 8.98. Further, in data set [1], the inhibition in vivo at 10 mg/kg is 53.5%, the change in vivo at 10 mg/kg was 10.5 ± 0.468%, the “Mean increase in edema weight ± SEM” value was determined as 0.73 ± 0.021 and the “% Activity relative to indomethacine” value is on record as 78.50%.

`Cc1nc2c(cnn2-c2ccccc2)c(=O)n1N=c1scc(-c2ccc(Br)cc2)n1-c1ccccc1` [Compound 11b, 5-{[4-(4-Bromophenyl)-3-phenyl-1,3-thiazol-2(3H)-ylidene]amino}-6-methyl-1-phenyl-1,5-dihydro-4H-pyrazolo[3,4-d]pyrimidin-4-one] came in with a melting point of 248 to 252 °C. Also, in the data set with gastric mucosa of rats, the “% ulceration in the population” value is reported as 80%, the “Average No. of ulcer” value came to 1.2, the “% Incidence/10” value is reported as 8 and the Average severity came to 1.33. In the data set on gastric mucosa of rats, the Ulcer index was found to be 10.53. In data set [1], the inhibition in vivo at 10 mg/kg was 57.3%, the change in vivo at 10 mg/kg stood at 8.42 ± 0.482%, the “Mean increase in edema weight ± SEM” value amounted to 0.67 ± 0.049 and the “% Activity relative to indomethacine” value stood at 84.11%.

`Cc1nc2c(cnn2-c2ccccc2)c(=O)n1N=c1scc(-c2ccc(Cl)cc2)n1-c1ccccc1` [Compound 11c, 5-{[4-(4-Chlorophenyl)-3-phenyl-1,3-thiazol-2(3H)-ylidene]amino}-6-methyl-1-phenyl-1,5-dihydro-4H-pyrazolo[3,4-d]pyrimidin-4-one] returned a melting point of 258 to 259 °C. In the data set with gastric mucosa of rats, the “% ulceration in the population” value is given as 40–60%, the “Average No. of ulcer” value is given as 1.6, the “% Incidence/10” value was 6 and the “% Ulcerogenicity relative to indomethacin” value came out at 53.47%. Also, in the data set with gastric mucosa of rats, the Average severity worked out at 1.63 and the Ulcer index amounted to 9.23. In addition, in data set [1], the inhibition in vivo at 10 mg/kg was 54.1%, the change in vivo at 10 mg/kg is 10.8 ± 0.457%, the “Mean increase in edema weight ± SEM” value turned out to be 0.72 ± 0.031 and the “% Activity relative to indomethacine” value is 79.44%.

`Cc1nc2c(cnn2-c2ccccc2)c(=O)n1N=c1scc(-c2ccccc2)n1-c1ccc(Cl)cc1` [Compound 11d, 5-{[3-(4-Chlorophenyl)-4-phenyl-1,3-thiazol-2(3H)-ylidene]amino}-6-methyl-1-phenyl-1,5-dihydro-4H-pyrazolo[3,4-d]pyrimidin-4-one] registered a melting point of 267 to 269 °C. Moreover, in the data set with gastric mucosa of rats, the “% ulceration in the population” value is 80%, the “Average No. of ulcer” value stood at 1.0, the “% Incidence/10” value is reported as 8 and the “% Ulcerogenicity relative to indomethacin” value came out at 59.09%. In the data set with gastric mucosa of rats, the Average severity was 1.20 and the Ulcer index turned out to be 10.20. In addition, in data set [1], the inhibition in vivo at 10 mg/kg was found to be 56.7%, the change in vivo at 10 mg/kg worked out at 8.73 ± 0.868%, the “Mean increase in edema weight ± SEM” value is recorded as 0.68 ± 0.065 and the “% Activity relative to indomethacine” value was 83.18%.

`Cc1nc2c(cnn2-c2ccccc2)c(=O)n1N=c1scc(-c2ccc(Br)cc2)n1-c1ccc(Cl)cc1` [Compound 11e, 5-{[4-(4-Bromophenyl)-3-(4-chlorophenyl)-1,3-thiazol-2(3H)-ylidene]amino}-6-methyl-1-phenyl-1,5-dihydro-4H-pyrazolo[3,4-d]pyrimidin-4-one]: the melting point lay in the range of 261 to 263 °C. In the data set on gastric mucosa of rats, the “% ulceration in the population” value is recorded as 20%; the “Average No. of ulcer” value was 0.8; the “% Incidence/10” value turned out to be 2; the “% Ulcerogenicity relative to indomethacin” value was 26% and 26.36%. Besides, in the data set on gastric mucosa of rats, the Average severity came out at 1.75 and the Ulcer index was determined as 4.55. In data set [1], the inhibition in vivo at 10 mg/kg is 66.9%, the change in vivo at 10 mg/kg was 8.74 ± 0.929%, the “Mean increase in edema weight ± SEM” value was determined as 0.52 ± 0.031 and the “% Activity relative to indomethacine” value stood at 98.14%.

On to `CCOC(=O)c1cc2nc3c(cnn3-c3ccccc3)c(=O)n2[nH]c1=O` [Compound 15, Ethyl 4,7-dioxo-1-phenyl-1,4,6,7-tetrahydropyrazolo[3′,4′:4,5]pyrimido[1,2-b]-pyridazine-8-carboxylate], for which the melting point lay within 172 to 173 °C. Also, in data set [1], the inhibition in vivo at 10 mg/kg was 41.4%, the change in vivo at 10 mg/kg worked out at 16.4 ± 1.02%, the “Mean increase in edema weight ± SEM” value is recorded as 0.92 ± 0.060 and the “% Activity relative to indomethacine” value is 60.75%.

As to `O=c1c2cnn(-c3ccccc3)c2nc2ccc(-c3ccccc3)nn12` [Compound 16, 1,7-Diphenylpyrazolo[3′,4′:4,5]pyrimido[1,2-b]pyridazin-4(1H)-one], the melting point fell in the range of 118 to 119 °C. Moreover, in data set [1], the inhibition in vivo at 10 mg/kg stood at 28.1%, the change in vivo at 10 mg/kg came out at 14.3 ± 0.98%, the “Mean increase in edema weight ± SEM” value came to 1.13 ± 0.067 and the “% Activity relative to indomethacine” value is 41.13%.

On to `O=c1c2cnn(-c3ccccc3)c2nc2cc3c(nn12)CCCC3` [Compound 17, 1-Phenyl-7,8,9,10-tetrahydropyrazolo[3′,4′:4,5]pyrimido[1,2-b]cinnolin-4(1H)-one], for which the melting point lay within 142 to 145 °C. Moreover, in data set [1], the inhibition in vivo at 10 mg/kg came to 29.9%, the change in vivo at 10 mg/kg amounted to 15.8 ± 0.756%, the “Mean increase in edema weight ± SEM” value turned out to be 1.10 ± 0.052 and the “% Activity relative to indomethacine” value is given as 43.93%.
